In patent US10058097B2, “Methods to increase corn productivity” (Valent BioSciences Corporation, priority 2016, dated 2018):

Tests used:
Format in all cases: in vivo
[1] = test system: greenhouse-grown maize; assay: Greenhouse study: effect of GA3 dose +/- GB on growth, 7 and 14 days; conditions: without or with GB 10000 mg/liter
Procedure: (§1) In several of the following examples, corn was grown in greenhouse conditions, which are defined as follows. Seeds of a commercial hybrid variety were sown in Pro-Mix® BX (Pro-Mix is a registered trademark of Premier Horticulture Ltd.) with the addition of Osmocote (14-14-14) and gypsum in three-liter pots. Greenhouses were kept at 25±3° C. under a 16:8 hour photoperiod, with illumination at canopy level of ˜250 μmoles m^−2s^−1. Corn was typically fertigated with Peters 21-5-20+micronutrients, calcium ammonium nitrate and magnesium sulfate. Typical growth rates for corn under these conditions ranged from 4-5 cm/day.
(§2) In most greenhouse studies, spray applications were made. These applications were made in a track sprayer outfitted with a 4001E Teejet® nozzle (Teejet is available from and a registered trademark of Spraying Systems Co., Glendale Heights, Ill., USA) and applied at 40 psi. Although application volumes did vary between some studies, generally, 30 gallons/acre of spray solution was applied. Following spray applications, plants were returned to the greenhouse. Typically, experiments were blocked according to plant size, and a randomized complete block design (RCB) was used.
(§3) Synergy was determined using the following formula, in which a synergy factor is calculated by the Abbott method: % Cexp=A+B−(AB/100), here % Cexp is the expected efficacy and “in which A and B are the increase in growth (or resistance to stress) levels given by the single [plant growth regulators]. If the ratio between the experimentally observed efficacy of the mixture Cobs and the expected efficacy of the mixture is greater than 1, synergistic interactions are present in the mixture” (Gisi, Synergistic Interaction of Fungicides in Mixtures, The American Phytopathological Society, 86:11, 1273-1279, 1996).
In a separate study, the effect of one rate of GB on various doses of GA3 was studied.

[2] = test system: corn plants; assay: Field study Colby, KS 2015, yield; conditions: GA3 120 mg/liter, GB 10000 mg/liter, (S)-ABA 9 mg/liter
From the text: In a field study conducted in Colby, Kans., corn plants were sprayed with solutions containing a non-ionic surfactant (0.25%, v/v) at 15 gallons of spray solution per acre.

[3] = test system: hybrid corn; assay: Corn trial Arcadia, IA 2015, yield; conditions: field; spray at V7; GA3 120 mg/liter, GB 10000 mg/liter, (S)-ABA 9 mg/liter
From the text: In a corn trial conducted in Arcadia, Iowa, hybrid corn was sown Apr. 30, 2015 and sprayed at V7 with solutions containing a non-ionic surfactant (0.25%, v/v) at 15 gallons of spray volume.

[4] = test system: corn; assay: Field study Woodstock, IL 2015, height, ear counts and yield
Procedure: A field study was conducted at Woodstock, Ill. Seeds of a central corn belt variety with 103 days to maturity were sown and plants were sprayed at V5 with solutions containing a non-ionic surfactant (0.25%, v/v) at 15 gallons of spray solution/acre. Growth was followed by measuring shoot heights in centimeters 50 plants in each replicate at 7 and 13 days post-spraying. The number of kernels per kernel-row (average kernel number) as well as the number of kernel-rows (average row number) per ear was counted for 50 plants in each replicate 7 days before harvest. The harvest grain yield was corrected to 15% moisture.

[5] = test system: corn; assay: Field study Woodstock, Ill. 2014, corn growth
Procedure: A field study was conducted at Woodstock, Ill. in 2014. Seeds of a central corn belt hybrid with 111 days to maturity were sown on May 20, 2014. Plants were sprayed at V4 with solutions containing a non-ionic surfactant (0.25%, v/v) at 15 gallons of spray solution/acre. Growth was followed by measuring shoot height in centimeters for 60 plants in each replicate at 7 and 14 days post spraying.

[6] = test system: greenhouse-grown maize; assay: Greenhouse study: effect of GA3 + GB dose on growth, seven days; conditions: GA3 120 mg/liter, GB 0 mg/liter; spray at V3; n = 7 plants
Procedure: as §1, §2
In a greenhouse study, plants were sprayed at V3 stage with solutions containing a non-ionic surfactant (0.25%, v/v) at 30 gallons of spray solution/acre and growth was followed for seven days.

[7] = test system: potted corn plants; assay: Acute drought stress greenhouse study, potted corn, 7 and 14 days
Procedure: In a separate acute drought stress greenhouse study conducted in Long Grove, Ill., corn plants were sprayed at V4 stage with solutions containing a non-ionic surfactant (0.25%, v/v) at 30 gallons of spray solution/acre and growth was determined by shoot height increase 7 and 14 days later. After treatment corn plants were not watered with the exception of one treatment of control (aqueous surfactant solution) that were watered as needed (well-watered control).

[8] = test system: corn; assay: Nutrient stress greenhouse study, GA3 and/or GB, 7 days; conditions: GA3 120 mg/liter, GB 10,000 mg/liter; for Change in Height: n = 7 plants
Procedure: as §3
During rainy periods in March-May in the Midwestern United States, nitrogen fertilizer for corn is often limited due to a combination of leaching and mineralization. GB included with GA3 can help overcome the slow growth caused by low nutrients. In a greenhouse study in Long Grove, Ill. we evaluated the effect of GA3, GB and the combination under ‘normal nutrient’ and limited nutrient conditions.

[9] = test system: corn; assay: Greenhouse study: Gibberellins, (S)-ABA and Glycine betaine on corn growth; conditions: GA3 or GA4 120 mg/liter, GB 10000 mg/liter, (S)-ABA 8.8 mg/liter
Procedure: as §1, §2
When gibberellins are combined with specific ratios of (S)-(+)-abscisic acid (“(S)-ABA”), a surprising enhancement of corn growth after application is often observed. The addition of GB to gibberellin+(S)-ABA spray combinations further increases the growth-promoting activity of the mixtures, as is shown in Table 6.

[10] = field, spray at V5, GA3 120 mg/liter, GB 10000 mg/liter, (S)-ABA 9 mg/liter
[11] = field, spray at V4, GA3 120 mg/liter, GB 10,000 mg/liter
[12] = acute drought stressed, 120 ppm GA3, 3000 ppm GB, spray at V4

C=C1C[C@]23C[C@@]1(O)CC[C@H]2[C@@]12C=C[C@H](O)[C@@](C)(C(=O)O1)[C@H]2[C@@H]3C(=O)O [GA3, gibberellic acid]
Growth Rate, 0-7 day(s) ([1]; GA3 30 mg/liter): 3.17 cm/day
Growth Rate, 0-14 day(s) ([1]; GA3 30 mg/liter): 6.82 cm/day
Plant Growth over 7 days ([1]; GA3 30 mg/liter): 22.2 cm
Plant Growth over 14 days ([1]; GA3 30 mg/liter): 47.8 cm
Growth Rate, 0-7 day(s) ([1]; GA3 60 mg/liter): 3.57 cm/day
Growth Rate, 0-14 day(s) ([1]; GA3 60 mg/liter): 7.24 cm/day
Plant Growth over 7 days ([1]; GA3 60 mg/liter): 25.0 cm
Plant Growth over 14 days ([1]; GA3 60 mg/liter): 50.7 cm
Growth Rate, 0-7 day(s) ([1]; GA3 120 mg/liter): 3.91 cm/day
Growth Rate, 0-14 day(s) ([1]; GA3 120 mg/liter): 7.35 cm/day
Plant Growth over 7 days ([1]; GA3 120 mg/liter): 27.3 cm
Plant Growth over 14 days ([1]; GA3 120 mg/liter): 51.4 cm
Growth Rate, 0-7 day(s) ([1]; GA3 240 mg/liter): 4.25 cm/day
Growth Rate, 0-14 day(s) ([1]; GA3 240 mg/liter): 7.94 cm/day
Plant Growth over 7 days ([1]; GA3 240 mg/liter): 29.8 cm
Plant Growth over 14 days ([1]; GA3 240 mg/liter): 55.6 cm
Yield [2]: 188.9 bu/acre
Yield [3]: 185.8 bu/acre
Average row number per ear ([4]; counted 7 days before harvest): 16.8
Height at 7 days post spray [4, 10]: 69.6 cm
Height at 13 days post spray [4, 10]: 88.6 cm
Yield ([4]; grain yield corrected to 15% moisture): 222.8 bu/acre
Growth Rate from 7-14 days [5, 11]: 4.89 cm/day
Height at 7 days post spray [5, 11]: 68.2 centimeters
Height at 14 days post spray [5, 11]: 102.4 centimeters
growth increase over the control plants (surfactant alone) ([5]; one week after treatment application): 6.9%
Growth Rate [6]: 4.86 cm/day
Plant Growth over 7 days [6]: 34.01 cm
Shoot Growth 7 days after treatment as Percent Increase as compared to Drought Stressed Control [7, 12]: 116.9%
Shoot Growth 14 days after treatment as Percent Increase as compared to Drought Stressed Control [7, 12]: 118.7%
increased growth under drought as compared to controls ([7]; at 7 days): 16.9%
increased growth under drought as compared to controls ([7]; at 14 days): 18.7%
Dry Weight ([8]; Low Nutrients): 2.50 g
Leaf Area (L1-L6) ([8]; Low Nutrients): 588.66 cm^2
Change in Height ([8]; Low Nutrients): 30.34 cm
Dry Weight ([8]; Normal Nutrients): 2.86 g
Leaf Area (L1-L6) ([8]; Normal Nutrients): 629.45 cm^2
Change in Height ([8]; Normal Nutrients): 38.83 cm
7 days Change in Height [9]: 32.5 cm
14 days Change in Height [9]: 62.8 cm
Dry Weight [9]: 8.1 g
